Data set [1] can be described thus: Caco-2 bidirectional assay (A-B and B-A) to study the effect of piperine (P-gp inhibitor) on the permeability. The following applies: human. Format: in vitro ADME. On the procedure: (§1) Caco-2 cells were cultured in MEM media with 10% serum and seeded at a density of 75000 cells per mL and cultured for 21 days in a 24-well trans-well plate at 37° C., 5% CO2. The monolayer integrity was checked intermittently (Day 0-21) using Trans Epithelial Electric Resistance (TEER). Cells were treated with drugs as follows:
(§2) 2) Bidirectional Assay (A-B and B-A) to Study the Effect of Piperine (P-Gp Inhibitor) on the Permeability
(§3) For A-B, 400 μL samples were added to the wells as per the plate setup to the apical side in duplicates with 800 μL HBSS pH 7.4 in the basal wells. Samples were collected at 60, 90 and 120 minutes from the basal side. Mass balance samples at 0 and 120 minutes were collected from the apical side.
(§4) For B-A, 800 μL of the respective dilutions were added to the basal side in duplicates with 400 μL HBSS pH 7.4 in the apical wells. Samples were collected at 60, 90 and 120 minutes from the apical side. Mass balance samples at 0 and 120 minutes were collected from the basal side. The sample were analyzed on LCMS-MS.
(§5) At the end of the experiment the monolayer integrity was checked using and Lucifer yellow, calculating the % rejection of Lucifer yellow by incubating cells with 100 μg/mL Lucifer.
(§6) The apparent permeability (Papp) in units per second can be calculated by using the following equation,
(§7) For Lucifer yellow, % Lucifer Yellow Passage=[RFU(test)−RFU(blank)/RFU(equilibrium)−RFU(blank)]*100
For orientation: Caco-2 monolayers are a common model of the intestinal barrier.

Data set [2] deals with Caco-2 cells. The data set is described as above. The format is in vitro ADME. The following applies: across the caco-2 monolayer; conclusion in words. The protocol: as §1, §2, §3, §4, §5, §6, §7
Where [3] appears, read: Digoxin 10 μM, Caco-2 monolayer, HBSS pH 7.4.

The results in this text go back to patent US11224591B2 (Cipla Limited, priority 2016, dated 2022).

Each structure is given as a SMILES string.

Usually Papp A→B stands for the apparent permeability from the apical to the basolateral side of a cell layer. A lower Papp A→B goes with poor permeation. The term Papp B→A denotes the apparent permeability from the basolateral to the apical side of a cell layer. For the compound `CO[C@H]1/C=C/O[C@@]2(C)Oc3c(C)c(O)c4c(O)c(c5c(nc6cc(C)ccn65)c4c3C2=O)NC(=O)/C(C)=C\C=C\[C@H](C)[C@H](O)[C@@H](C)[C@@H](O)[C@@H](C)[C@H](OC(C)=O)[C@@H]1C` [Rifaximin, [(2S,16Z,18E,20S,21S,22R,23R,24R,25S,26S,27S,28E)-5,6,21,23,25-pentahydroxy-27-methoxy-2,4,11,16,20,22,24,26-octamethyl-2,7 (epoxypentadeca-[1,11,13]trienimino)benzofuro[4,5-e]pyrido[1,2-a]-benzimidazole 1,15(2H)-dione,25-acetate]], in data set [1] (Caco-2, pH 7.4), the Papp A→B at 120 min, 30 μM came out at 1.08 ×10⁻⁶ cm/s and the Papp B→A at 120 min, 30 μM stood at 6.17 ×10⁻⁶ cm/s. Moreover, the Permeability classification entry in data set [2] is on record as “high”.
Usually efflux ratio stands for the permeability from basolateral to apical divided by that in the opposite direction, in the common usage. `C[C@H]1O[C@@H](O[C@H]2[C@@H](O)C[C@H](O[C@H]3[C@@H](O)C[C@H](O[C@H]4CC[C@@]5(C)[C@H](CC[C@@H]6[C@@H]5C[C@@H](O)[C@]5(C)[C@@H](C7=CC(=O)OC7)CC[C@]65O)C4)O[C@@H]3C)O[C@@H]2C)C[C@H](O)[C@@H]1O` [Digoxin]: in data set [1] (Caco-2, pH 7.4, Digoxin 10 μM, Papp B-A/Papp A-B), the efflux ratio at 120 min, 10 μM came to 12. In data set [1] (setting [3]), the Papp A→B at 120 min, 10 μM was 0.829 ×10⁻⁶ cm/s and the Papp B→A at 120 min, 10 μM was found to be 9.97 ×10⁻⁶ cm/s.
